± gives the expanded uncertainty stated by the source.
Assay: molar heat capacity at constant pressure
Details: 101.33 kPa, Small (less than 1 g) adiabatic calorimetry

COc1ccc(C2(c3ccc(OC)c(C)c3)OC(=O)c3ccccc32)cc1C [3,3-bis(4-methoxy-3-methylphenyl)-1(3H)-isobenzofuranone]
Details | molar heat capacity at constant pressure [J/K/mol]
122.17 K, Crystal | 213.95 ± 0.86
122.52 K, Glass | 216.46 ± 0.87
124.01 K, Crystal | 216.41 ± 0.87
124.36 K, Glass | 219.13 ± 0.88
125.87 K, Crystal | 218.89 ± 0.88
126.22 K, Glass | 221.66 ± 0.89
127.75 K, Crystal | 221.61 ± 0.89
128.1 K, Glass | 224.36 ± 0.9
129.65 K, Crystal | 224.19 ± 0.9
129.99 K, Glass | 227.11 ± 0.91
131.57 K, Crystal | 226.74 ± 0.91
131.9 K, Glass | 229.75 ± 0.92
133.5 K, Crystal | 229.52 ± 0.91
133.83 K, Glass | 232.44 ± 0.92
135.45 K, Crystal | 232.5 ± 0.92
135.78 K, Glass | 234.99 ± 0.93
137.41 K, Crystal | 235.25 ± 0.93
137.74 K, Glass | 237.67 ± 0.94
139.4 K, Crystal | 237.93 ± 0.94
139.72 K, Glass | 240.4 ± 0.95
141.4 K, Crystal | 240.84 ± 0.95
141.72 K, Glass | 243.28 ± 0.96
143.41 K, Crystal | 243.44 ± 0.96
143.74 K, Glass | 246.09 ± 0.97
145.45 K, Crystal | 246.17 ± 0.97
145.77 K, Glass | 248.92 ± 0.98
147.5 K, Crystal | 249.06 ± 0.98
147.82 K, Glass | 251.76 ± 0.99
149.57 K, Crystal | 252.1 ± 0.99
149.89 K, Glass | 254.31 ± 1
151.66 K, Crystal | 254.85 ± 1
151.97 K, Glass | 257.37 ± 1
153.77 K, Crystal | 257.6 ± 1
154.07 K, Glass | 260.38 ± 1
155.89 K, Crystal | 260.26 ± 1
156.2 K, Glass | 263.17 ± 1
158.03 K, Crystal | 263.29 ± 1
158.33 K, Glass | 266.05 ± 1
160.19 K, Crystal | 265.94 ± 1
160.48 K, Glass | 269 ± 1.1
162.37 K, Crystal | 268.95 ± 1.1
162.64 K, Glass | 272.01 ± 1.1
164.56 K, Crystal | 271.82 ± 1.1
164.81 K, Glass | 275.02 ± 1.1
166.77 K, Crystal | 274.83 ± 1.1
167 K, Glass | 277.98 ± 1.1
169 K, Crystal | 277.76 ± 1.1
169.19 K, Glass | 280.78 ± 1.1
171.25 K, Crystal | 280.87 ± 1.1
171.4 K, Glass | 283.98 ± 1.1
173.51 K, Crystal | 283.67 ± 1.1
173.62 K, Glass | 286.89 ± 1.1
175.79 K, Crystal | 286.71 ± 1.1
175.85 K, Glass | 289.88 ± 1.1
178.09 K, Crystal | 289.96 ± 1.1
178.09 K, Glass | 293 ± 1.1
180.35 K, Glass | 296.49 ± 1.1
180.41 K, Crystal | 293.2 ± 1.1
182.62 K, Glass | 299.4 ± 1.2
182.75 K, Crystal | 296.08 ± 1.1
184.9 K, Glass | 302.23 ± 1.2
185.1 K, Crystal | 299.36 ± 1.2
187.19 K, Glass | 305.37 ± 1.2
187.47 K, Crystal | 302.25 ± 1.2
189.49 K, Glass | 308.6 ± 1.2
189.86 K, Crystal | 305.36 ± 1.2
191.81 K, Glass | 311.72 ± 1.2
192.26 K, Crystal | 308.64 ± 1.2
194.14 K, Glass | 314.93 ± 1.2
194.69 K, Crystal | 311.89 ± 1.2
196.48 K, Glass | 318.26 ± 1.2
197.13 K, Crystal | 315.34 ± 1.2
198.84 K, Glass | 321.49 ± 1.2
199.32 K, Crystal | 317.71 ± 1.2
201.2 K, Glass | 324.99 ± 1.2
201.85 K, Crystal | 321.03 ± 1.2
203.58 K, Glass | 328.08 ± 1.2
204.39 K, Crystal | 324.18 ± 1.2
205.97 K, Glass | 331.65 ± 1.3
206.95 K, Crystal | 328.02 ± 1.2
208.37 K, Glass | 334.98 ± 1.3
209.51 K, Crystal | 331.38 ± 1.3
210.79 K, Glass | 338.72 ± 1.3
212.09 K, Crystal | 334.57 ± 1.3
213.22 K, Glass | 342.02 ± 1.3
214.68 K, Crystal | 337.96 ± 1.3
215.66 K, Glass | 345.52 ± 1.3
217.29 K, Crystal | 341.78 ± 1.3
218.12 K, Glass | 349.05 ± 1.3
219.9 K, Crystal | 345.52 ± 1.3
220.58 K, Glass | 352.67 ± 1.3
222.52 K, Crystal | 348.92 ± 1.3
223.06 K, Glass | 355.96 ± 1.4
225.16 K, Crystal | 352.6 ± 1.3
225.55 K, Glass | 359.74 ± 1.4
227.81 K, Crystal | 355.97 ± 1.4
228.02 K, Glass | 362.84 ± 1.4
230.46 K, Glass | 366.31 ± 1.4
230.47 K, Crystal | 359.41 ± 1.4
232.95 K, Glass | 369.75 ± 1.4
233.14 K, Crystal | 362.97 ± 1.4
235.43 K, Glass | 373.33 ± 1.4
235.82 K, Crystal | 366.8 ± 1.4
237.94 K, Glass | 377.18 ± 1.4
238.52 K, Crystal | 370.5 ± 1.4
240.46 K, Glass | 380.87 ± 1.4
241.23 K, Crystal | 373.97 ± 1.4
243.01 K, Glass | 384.18 ± 1.4
243.95 K, Crystal | 377.59 ± 1.4
245.58 K, Glass | 387.76 ± 1.5
246.68 K, Crystal | 381.22 ± 1.4
248.17 K, Glass | 391.43 ± 1.5
249.42 K, Crystal | 384.68 ± 1.4
250.78 K, Glass | 395.34 ± 1.5
252.17 K, Crystal | 388.51 ± 1.5
253.42 K, Glass | 399.08 ± 1.5
254.94 K, Crystal | 392.35 ± 1.5
256.07 K, Glass | 402.8 ± 1.5
257.72 K, Crystal | 395.86 ± 1.5
258.74 K, Glass | 406.86 ± 1.5
260.51 K, Crystal | 399.92 ± 1.5
261.44 K, Glass | 410.9 ± 1.5
263.31 K, Crystal | 403.6 ± 1.5
264.16 K, Glass | 414.85 ± 1.6
266.12 K, Crystal | 407.84 ± 1.5
266.89 K, Glass | 419.34 ± 1.6
268.94 K, Crystal | 412.03 ± 1.6
269.65 K, Glass | 423.9 ± 1.6
271.78 K, Crystal | 417 ± 1.6
272.43 K, Glass | 428.57 ± 1.6
274.62 K, Crystal | 419.54 ± 1.6
275.22 K, Glass | 431.8 ± 1.6
277.48 K, Crystal | 423.7 ± 1.6
278.04 K, Glass | 436.42 ± 1.6
280.36 K, Crystal | 427.79 ± 1.6
280.88 K, Glass | 440.97 ± 1.6
282.95 K, Crystal | 430.44 ± 1.6
283.74 K, Glass | 445.62 ± 1.7
285.84 K, Crystal | 434.94 ± 1.6
286.62 K, Glass | 450.63 ± 1.7
288.75 K, Crystal | 438.86 ± 1.6
289.52 K, Glass | 455.31 ± 1.7
291.64 K, Crystal | 442.83 ± 1.6
292.44 K, Glass | 460.3 ± 1.7
294.51 K, Crystal | 446.52 ± 1.7
295.38 K, Glass | 465.32 ± 1.7
297.4 K, Crystal | 449.56 ± 1.7
298.34 K, Glass | 470.91 ± 1.8
301.33 K, Glass | 473.58 ± 1.8
303.26 K, Crystal | 457.78 ± 1.7
304.32 K, Glass | 491.69 ± 1.8
306.21 K, Crystal | 461.74 ± 1.7
307.3 K, Glass | 525.07 ± 2
309.18 K, Crystal | 465.91 ± 1.7
310.26 K, Glass | 604.32 ± 2.2
312.18 K, Crystal | 470.02 ± 1.8
313.23 K, Glass | 614.14 ± 2.2
315.19 K, Crystal | 474.07 ± 1.8
316.23 K, Metastable liquid | 622.32 ± 2.7
318.23 K, Crystal | 478.43 ± 1.8
319.25 K, Metastable liquid | 625.96 ± 2.7
321.28 K, Crystal | 482.81 ± 1.8
322.29 K, Metastable liquid | 629.84 ± 2.7
324.35 K, Crystal | 487.1 ± 1.8
325.35 K, Metastable liquid | 633.32 ± 2.7
327.44 K, Crystal | 491.54 ± 1.8
328.43 K, Metastable liquid | 636.56 ± 2.8
330.55 K, Crystal | 495.88 ± 1.8
331.52 K, Metastable liquid | 639.81 ± 2.8
333.68 K, Crystal | 500.17 ± 1.9
334.64 K, Metastable liquid | 642.98 ± 2.8
336.81 K, Crystal | 504.57 ± 1.9
337.78 K, Metastable liquid | 646.52 ± 2.8
339.94 K, Crystal | 508.36 ± 1.9
340.93 K, Metastable liquid | 649.55 ± 2.8
343.08 K, Crystal | 512.55 ± 1.9
344.11 K, Metastable liquid | 652.75 ± 2.8
346.25 K, Crystal | 517.45 ± 1.9
347.3 K, Metastable liquid | 656.04 ± 2.8
349.43 K, Crystal | 521.7 ± 1.9
350.51 K, Metastable liquid | 659.31 ± 2.8
352.63 K, Crystal | 525.97 ± 1.9
353.74 K, Metastable liquid | 662.1 ± 2.9
355.85 K, Crystal | 530.55 ± 2
356.97 K, Metastable liquid | 665.61 ± 2.9
359.09 K, Crystal | 535.23 ± 2
360.22 K, Metastable liquid | 669.03 ± 2.9
362.34 K, Crystal | 540.42 ± 2
363.49 K, Metastable liquid | 672.55 ± 2.9
365.61 K, Crystal | 545.96 ± 2
366.77 K, Metastable liquid | 676.27 ± 2.9
368.9 K, Crystal | 551.67 ± 2
370.07 K, Metastable liquid | 680.12 ± 2.9
372.2 K, Crystal | 556.9 ± 2

— the NIST ThermoML archive (doi:10.1016/j.tca.2016.05.007)
